In patent publication US20240067693A1, “POLYPEPTIDES AND USES THEREOF” (MEDIMMUNE LIMITED, priority 2020, published 2024):
Numbered stars: 1 amine (or outer) side, 2 acyl side, 3 side chain; on linkers, the order of the positions; unused ones are H or OH. Bridge positions count the residues as written; N and C are the ends. Square brackets hold non-standard residues; d marks the D form. Side chains are listed from the residue outwards. Peptide text beside a SMILES is read from it. * marks the point of attachment. C18 diacid = O=C(O)CCCCCCCCCCCCCCCCC(=O)*; γGlu = O=C(O)[C@H](CCC(=O)[*:2])N[*:1]; AEEA = NCCOCCOCC(=O)O; Aib = CC(C)(N)C(=O)O

What was measured:
[1] = target: T1, human calcitonin receptor (hCTR) (Homo sapiens, UniProt P30988); assay: cAMP production in 1321N1 cells with stable recombinant expression of human calcitonin receptor (hCTR); assay type: cell-based; settings: cAMP, 1321N1 cells, assay buffer with 0.1% BSA; read-out: EC50 (pM) hCTR
T1 construct: expressed in transfected cells
T1 sequence (P30988 25-474): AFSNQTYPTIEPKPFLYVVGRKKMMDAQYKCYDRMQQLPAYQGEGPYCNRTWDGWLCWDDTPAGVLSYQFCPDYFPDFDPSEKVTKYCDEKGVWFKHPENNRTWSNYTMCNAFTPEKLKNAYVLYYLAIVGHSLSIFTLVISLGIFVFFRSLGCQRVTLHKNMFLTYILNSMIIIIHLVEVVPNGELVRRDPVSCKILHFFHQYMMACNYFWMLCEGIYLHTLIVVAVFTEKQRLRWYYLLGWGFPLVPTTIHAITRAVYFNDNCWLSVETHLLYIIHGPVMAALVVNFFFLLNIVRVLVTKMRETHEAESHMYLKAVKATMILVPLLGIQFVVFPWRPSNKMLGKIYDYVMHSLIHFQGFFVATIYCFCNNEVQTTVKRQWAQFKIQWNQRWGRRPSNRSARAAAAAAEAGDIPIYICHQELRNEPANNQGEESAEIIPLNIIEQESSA
Method in brief: (§1)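 EC50 values come from 4-parameter logistic fits of HTRF cAMP signal, normalised to maximal calcitonin or amylin effect. Peptides were tested in duplicate for 30 min at RT in IBMX-containing (0.5 mM) BSA/HEPES buffer pH 7.4 on stable 1321N1 (human CTR, AMYR3) or HEK (rat CTR, AMYR3) lines.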

[2] = target: T2, human amylin receptor (calcitonin receptor co-expressed with receptor activity modifying protein, RAMP3) (hAMYR3) (Homo sapiens, UniProt O60896+P30988); assay: cAMP production in 1321N1 cells with stable recombinant expression of human amylin receptor (hAMYR3); assay type: cell-based; settings: for Ratio (selectivity hAMYR vs hCTR, ratio of EC50 values at the two receptors): EC50 hCTR / EC50 hAMYR3; for EC50: cAMP, 1321N1 cells, assay buffer with 0.1% BSA, read-out: EC50 (pM) hAMYR3
T2 construct: expressed in transfected cells
T2 sequence (P30988 25-474): T1 sequence (P30988 25-474)
T2 sequence (O60896 24-148 partner): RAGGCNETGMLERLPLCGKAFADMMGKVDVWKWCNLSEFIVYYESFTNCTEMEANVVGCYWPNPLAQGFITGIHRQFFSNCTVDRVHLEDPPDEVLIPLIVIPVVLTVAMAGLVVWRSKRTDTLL
Method in brief: as §1

Molecule | EC50 [1] [pM] | Ratio (selectivity hAMYR vs hCTR, ratio of EC50 values at the two receptors) [2] | EC50 [2] [pM]
CC[C@H](C)[C@H](NC(=O)[C@@H]1CCCN1C(=O)CNC(=O)[C@H](Cc1ccccc1)NC(=O)[C@H](CC(N)=O)NC(=O)[C@H](CC(N)=O)NC(=O)[C@H](CO)NC(=O)[C@H](CO)NC(=O)[C@H](Cc1c[nH]cn1)NC(=O)C(C)(C)NC(=O)[C@H](CC(C)C)NC(=O)[C@H](Cc1ccccc1)NC(=O)[C@H](CC(N)=O)NC(=O)[C@H](C)NC(=O)[C@H](CC(C)C)NC(=O)[C@H](CCCNC(=N)N)NC(=O)[C@H](CCC(N)=O)NC(=O)[C@@H](NC(=O)[C@H](C)NC(=O)[C@@H]1CSSC[C@H](NC(=O)[C@H](CCCCN)NC(=O)[C@@H](N)CCCCNC(=O)CC[C@H](NC(=O)CCCCCCCCCCCCCCCCC(=O)O)C(=O)O)C(=O)N[C@@H](CC(N)=O)C(=O)N[C@@H]([C@@H](C)O)C(=O)N[C@@H](C)C(=O)N[C@@H]([C@@H](C)O)C(=O)N1)[C@@H](C)O)C(=O)N[C@@H](CC(C)C)C(=O)N1CCC[C@H]1C(=O)N1CCC[C@H]1C(=O)N[C@H](C(=O)N[C@@H](CC(N)=O)C(=O)NC(C)(C)C(=O)NCC(=O)N[C@@H](CO)C(=O)N[C@@H](CC(N)=O)C(=O)N[C@H](C(=O)N[C@@H](Cc1ccc(O)cc1)C(N)=O)[C@@H](C)O)[C@@H](C)O [Peptide 99, K(γE-C18diacid)K[CNTATC]ATQRLANFL(Aib)HSSNNFGPILPPTN(Aib)GSNTY-amide] (H-K([γGlu-C18 diacid])KCNTATCATQRLANFL[Aib]HSSNNFGPILPPTN[Aib]GSNTY-NH2; disulfide 3-8; N-terminus assumed) | 1820 | 0.5 | 3800
CC[C@H](C)[C@H](NC(=O)[C@@H]1CCCN1C(=O)CNC(=O)[C@H](Cc1ccccc1)NC(=O)[C@H](CC(N)=O)NC(=O)C(C)(C)NC(=O)[C@H](CO)NC(=O)[C@H](CO)NC(=O)[C@H](Cc1c[nH]cn1)NC(=O)[C@@H](NC(=O)[C@H](CC(C)C)NC(=O)[C@H](Cc1ccccc1)NC(=O)[C@H](CC(N)=O)NC(=O)[C@H](C)NC(=O)[C@H](CC(C)C)NC(=O)[C@H](CCCNC(=N)N)NC(=O)[C@H](CCC(N)=O)NC(=O)[C@@H](NC(=O)[C@H](C)NC(=O)[C@@H]1CSSC[C@H](NC(=O)[C@H](CCCCN)NC(=O)[C@@H](N)CCCCNC(=O)CC[C@H](NC(=O)CCCCCCCCCCCCCCCCC(=O)O)C(=O)O)C(=O)N[C@@H](CC(N)=O)C(=O)N[C@@H]([C@@H](C)O)C(=O)N[C@@H](C)C(=O)N[C@@H]([C@@H](C)O)C(=O)N1)[C@@H](C)O)C(C)C)C(=O)N[C@@H](CC(C)C)C(=O)N1CCC[C@H]1C(=O)N1CCC[C@H]1C(=O)N[C@H](C(=O)N[C@@H](CC(N)=O)C(=O)N[C@H](C(=O)NCC(=O)NC(C)(C)C(=O)N[C@@H](CC(N)=O)C(=O)N[C@H](C(=O)N[C@@H](Cc1ccc(O)cc1)C(N)=O)[C@@H](C)O)C(C)C)[C@@H](C)O [Peptide 84, K(γE-C18diacid)K[CNTATC]ATQRLANFLVHSS(Aib)NFGPILPPTNVG(Aib)NTY-amide] (H-K([γGlu-C18 diacid])KCNTATCATQRLANFLVHSS[Aib]NFGPILPPTNVG[Aib]NTY-NH2; disulfide 3-8; N-terminus assumed) | 401 | 3 | 118
CC[C@H](C)[C@H](NC(=O)[C@@H]1CCCN1C(=O)CNC(=O)[C@H](Cc1ccccc1)NC(=O)[C@H](CC(N)=O)NC(=O)C(C)(C)NC(=O)[C@H](CO)NC(=O)[C@H](CO)NC(=O)[C@H](Cc1c[nH]cn1)NC(=O)[C@@H](NC(=O)[C@@H](CC(C)C)NC(=O)[C@H](Cc1ccccc1)NC(=O)[C@H](CC(N)=O)NC(=O)[C@H](C)NC(=O)[C@H](CC(C)C)NC(=O)[C@H](CCCNC(=N)N)NC(=O)[C@H](CCC(N)=O)NC(=O)[C@@H](NC(=O)[C@H](C)NC(=O)[C@@H]1CSSC[C@H](NC(=O)[C@@H](N)CCCCNC(=O)CC[C@H](NC(=O)CCCCCCCCCCCCCCCCC(=O)O)C(=O)O)C(=O)N[C@@H](CC(N)=O)C(=O)N[C@@H]([C@@H](C)O)C(=O)N[C@@H](C)C(=O)N[C@@H]([C@@H](C)O)C(=O)N1)[C@@H](C)O)C(C)C)C(=O)N[C@@H](CC(C)C)C(=O)N1CCC[C@H]1C(=O)N1CCC[C@H]1C(=O)N[C@H](C(=O)N[C@@H](CC(N)=O)C(=O)N[C@H](C(=O)NCC(=O)N[C@@H](CO)C(=O)N[C@@H](CC(N)=O)C(=O)N[C@H](C(=O)N[C@@H](Cc1ccc(O)cc1)C(N)=O)[C@@H](C)O)C(C)C)[C@@H](C)O [Peptide 62, K(γE-C18diacid)[CNTATC]ATQRLANF(dL)VHSS(Aib)NFGPILPPTNVGSNTY-amide] (H-K([γGlu-C18 diacid])CNTATCATQRLANF[dL]VHSS[Aib]NFGPILPPTNVGSNTY-NH2; disulfide 2-7) | 7250 | 43 | 167
H-K([AEEA-AEEA-γGlu-C18 diacid])GGGKCNTATCATQRLANFLVHSSNNFGPILPPTNVGSNTY-NH2 (disulfide 6-11) [Peptide 7] | 2160 | 12 | 173
CC[C@H](C)[C@H](NC(=O)[C@@H]1CCCN1C(=O)CNC(=O)[C@H](Cc1ccccc1)NC(=O)[C@H](CC(N)=O)NC(=O)[C@H](CC(N)=O)NC(=O)[C@H](CO)NC(=O)[C@H](CO)NC(=O)[C@H](Cc1c[nH]cn1)NC(=O)C(C)(C)NC(=O)[C@H](CC(C)C)NC(=O)[C@H](Cc1ccccc1)NC(=O)[C@H](CC(N)=O)NC(=O)[C@H](C)NC(=O)[C@H](CC(C)C)NC(=O)[C@H](CCCNC(=N)N)NC(=O)[C@H](CCC(N)=O)NC(=O)[C@@H](NC(=O)[C@H](C)NC(=O)[C@@H]1CSSC[C@H](NC(=O)[C@H](CCCCN)NC(=O)[C@@H](N)CCCCNC(=O)CC[C@H](NC(=O)CCCCCCCCCCCCCCCCC(=O)O)C(=O)O)C(=O)N[C@@H](CC(N)=O)C(=O)N[C@@H]([C@@H](C)O)C(=O)N[C@@H](C)C(=O)N[C@@H]([C@@H](C)O)C(=O)N1)[C@@H](C)O)C(=O)N[C@@H](CC(C)C)C(=O)NC(C)(C)C(=O)N1CCC[C@H]1C(=O)N[C@H](C(=O)N[C@@H](CC(N)=O)C(=O)N[C@H](C(=O)NCC(=O)N[C@@H](CO)C(=O)N[C@@H](CC(N)=O)C(=O)N[C@H](C(=O)N[C@@H](Cc1ccc(O)cc1)C(N)=O)[C@@H](C)O)C(C)C)[C@@H](C)O [Peptide 96, K(γE-C18diacid)K[CNTATC]ATQRLANFL(Aib)HSSNNFGPIL(Aib)PTNVGSNTY-amide] (H-K([γGlu-C18 diacid])KCNTATCATQRLANFL[Aib]HSSNNFGPIL[Aib]PTNVGSNTY-NH2; disulfide 3-8; N-terminus assumed) | 859 | 2 | 556
CC[C@H](C)[C@H](NC(=O)[C@@H]1CCCN1C(=O)CNC(=O)[C@H](Cc1ccccc1)NC(=O)[C@H](CC(N)=O)NC(=O)C(C)(C)NC(=O)[C@H](CO)NC(=O)[C@H](CO)NC(=O)[C@H](Cc1c[nH]cn1)NC(=O)[C@H](CCC(=O)O)NC(=O)[C@H](CC(C)C)NC(=O)[C@H](Cc1ccccc1)NC(=O)[C@H](CC(N)=O)NC(=O)[C@H](C)NC(=O)[C@H](CC(C)C)NC(=O)[C@H](CCCNC(=N)N)NC(=O)[C@H](CCC(N)=O)NC(=O)[C@@H](NC(=O)[C@H](C)NC(=O)[C@@H]1CSSC[C@H](NC(=O)[C@H](CCCCN)NC(=O)[C@@H](N)CCCCNC(=O)CC[C@H](NC(=O)CCCCCCCCCCCCCCCCC(=O)O)C(=O)O)C(=O)N[C@@H](CC(N)=O)C(=O)N[C@@H]([C@@H](C)O)C(=O)N[C@@H](C)C(=O)N[C@@H]([C@@H](C)O)C(=O)N1)[C@@H](C)O)C(=O)N[C@@H](CC(C)C)C(=O)N1CCC[C@H]1C(=O)N1CCC[C@H]1C(=O)N[C@H](C(=O)N[C@@H](CC(N)=O)C(=O)N[C@H](C(=O)NCC(=O)N[C@@H](CO)C(=O)N[C@@H](CC(N)=O)C(=O)N[C@H](C(=O)N[C@@H](Cc1ccc(O)cc1)C(N)=O)[C@@H](C)O)C(C)C)[C@@H](C)O [Peptide 39, K(γE-C18diacid)K[CNTATC]ATQRLANFLEHSS(Aib)NFGPILPPTNVGSNTY-amide] (H-K([γGlu-C18 diacid])KCNTATCATQRLANFLEHSS[Aib]NFGPILPPTNVGSNTY-NH2; disulfide 3-8) | 10400 | 10 | 1050
